18 molecules from US11345711B2, “8,9-dihydroimidazo[1,2-a]pyrimido[5,4-e]pyrimidin-5(6H)-ones” (IMPACT THERAPEUTICS (SHANGHAI), INC, priority 2016, dated 2022) can be followed below.

The target of one test is Wee1 (h) (Homo sapiens, UniProt P30291). Briefly: Wee1 kinase (h) detection method, [γ-33P]-ATP filter assay. Format: biochemical.
For a further test, the system named is LoVo cells. The test is described as follows: MTT based cell viability assay on LoVo cells. The note with it: Homo sapiens, LoVo, 72 h, 3 d, read-out: IC50, growth inhibition of LoVo cells. The method in brief: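 Inhibition of LoVo proliferation was derived as IC50 from a sigmoidal dose-response fit of cell survival. Readout was MTT (0.5 mg/mL, 4 h) with absorbance at 552/630/690 nm, after 3-day treatment at 37 °C. Eight-point series from 10 μM to 0.01 μM, DMSO control, 1% DMSO final.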

The subject of another test is NCI-H1299 cells. The test is described as follows: MTT based cell viability assay on NCI-H1299 cells. The settings on record: Homo sapiens, read-out: IC50, growth inhibition of NCI-H1299 cells. In a few lines:
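NCI-H1299 cells (1000/well, settled overnight) were exposed for 3 d at 37 °C, 5% CO2, to an eight-point series of 10 μM to 0.01 μM plus DMSO blank, as prepared in DMSO (final DMSO 1‰). MTT (0.5 mg/mL, 4 h) was read at 552/630/690 nm. IC50 came from sigmoidal dose-response fits of survival.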

Where two headings read alike, the source gives them in different places.

Sequence of Wee1 (h) (P30291 whole entry): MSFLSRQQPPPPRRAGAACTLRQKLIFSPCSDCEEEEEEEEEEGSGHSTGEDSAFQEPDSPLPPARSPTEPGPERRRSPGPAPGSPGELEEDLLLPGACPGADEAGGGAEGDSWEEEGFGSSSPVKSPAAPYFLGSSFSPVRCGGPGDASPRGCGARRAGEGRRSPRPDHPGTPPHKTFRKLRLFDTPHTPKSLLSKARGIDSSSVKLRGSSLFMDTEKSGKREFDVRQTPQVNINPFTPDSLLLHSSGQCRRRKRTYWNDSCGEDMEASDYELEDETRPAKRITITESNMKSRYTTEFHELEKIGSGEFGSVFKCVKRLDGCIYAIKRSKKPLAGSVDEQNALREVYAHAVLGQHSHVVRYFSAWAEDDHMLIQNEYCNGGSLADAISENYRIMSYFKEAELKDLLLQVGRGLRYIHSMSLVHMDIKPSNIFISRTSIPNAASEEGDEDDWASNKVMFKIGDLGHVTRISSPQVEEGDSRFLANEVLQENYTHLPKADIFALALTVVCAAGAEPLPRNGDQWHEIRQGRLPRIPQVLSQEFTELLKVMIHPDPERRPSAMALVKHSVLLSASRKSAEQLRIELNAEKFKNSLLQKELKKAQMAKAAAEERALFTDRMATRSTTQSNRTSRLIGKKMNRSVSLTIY

Turning to `CN(C)CCCOc1ccc(Nc2ncc3c(n2)N2CCN=C2N(c2c(F)cccc2Cl)C3=O)cc1` [Example 106, 6-(2-Chloro-6-fluorophenyl)-2-((4-(3-(dimethylamino)propoxy)phenyl)amino)-8,9-dihydroimidazo[1,2-a]pyrimido[5,4-e]pyrimidin-5(6H)-one], the “Inh. (%) of Wee1 kinase enzyme activity” value at Wee1 (h) (C 0.01 μm compound) amounted to 38%; at Wee1 (h) (C 0.1 μm compound), 83%; at Wee1 (h) (C 1 μm compound), 94%. The IC50 in the test with LoVo cells is 0.33 µM; in the test with NCI-H1299 cells (NCI-H1299 cells), 0.835 µM.

Consider `CN1CCC(Oc2ccc(Nc3ncc4c(n3)N3CCN=C3N(c3c(F)cccc3Cl)C4=O)cc2)CC1` [Example 107, 6-(2-Chloro-6-fluorophenyl)-2-((4-((1-methylpiperidin-4-yl)oxy)phenyl)amino)-8,9-dihydroimidazo[1,2-a]pyrimido[5,4-e]pyrimidin-5(6H)-one], for which the “Inh. (%) of Wee1 kinase enzyme activity” value at Wee1 (h) (C 1 μm compound) was found to be 95%. Moreover, the IC50 was 0.36 µM in the test with LoVo cells and 0.794 µM in the test with NCI-H1299 cells (NCI-H1299 cells).

Take `CN(C)CCNc1ccc(Nc2ncc3c(n2)N2CCN=C2N(c2c(F)cccc2Cl)C3=O)cc1` [Example 108, 6-(2-Chloro-6-fluorophenyl)-2-((4-((2-(dimethylamino)ethyl)amino)phenyl)amino)-8,9-dihydroimidazo[1,2-a]pyrimido[5,4-e]pyrimidin-5(6H)-one]: the “Inh. (%) of Wee1 kinase enzyme activity” value on Wee1 (h) (C 1 μm compound) is given as 96%. Besides, the IC50 stood at 1.5 µM in the test with LoVo cells and 0.899 µM with NCI-H1299 cells (NCI-H1299, NCI-H1299 cells).

`CN(C)CCN(C)c1ccc(Nc2ncc3c(n2)N2CCN=C2N(c2c(F)cccc2Cl)C3=O)cc1` [Example 109, 6-(2-Chloro-6-fluorophenyl)-2-((4-((2-(dimethylamino)ethyl)(methyl)amino)phenyl)amino)-8,9-dihydroimidazo[1,2-a]pyrimido[5,4-e]pyrimidin-5(6H)-one]: the “Inh. (%) of Wee1 kinase enzyme activity” value on Wee1 (h) (C 1 μm compound) was 96%. In addition, the IC50 was 1.15 µM in the test on LoVo cells and 0.884 µM in the test with NCI-H1299 cells (NCI-H1299 cells).

For `CN(C)CCCNc1ccc(Nc2ncc3c(n2)N2CCN=C2N(c2c(F)cccc2Cl)C3=O)cc1` [Example 110, 6-(2-Chloro-6-fluorophenyl)-2-((4-((3-(dimethylamino)propyl)amino)phenyl)amino)-8,9-dihydroimidazo[1,2-a]pyrimido[5,4-e]pyrimidin-5(6H)-one], the “Inh. (%) of Wee1 kinase enzyme activity” value at Wee1 (h) (C 1 μm compound) is reported as 96%. For the same molecule, the IC50 in the test with LoVo cells stood at 0.472 µM; in the test on NCI-H1299 cells (NCI-H1299 cells), 0.599 µM.

Consider `CN(C)CCCN(C)c1ccc(Nc2ncc3c(n2)N2CCN=C2N(c2c(F)cccc2Cl)C3=O)cc1` [Example 111, 6-(2-Chloro-6-fluorophenyl)-2-((4-((3-(dimethylamino)propyl)(methyl)amino)phenyl)amino)-8,9-dihydroimidazo[1,2-a]pyrimido[5,4-e]pyrimidin-5(6H)-one], for which, at Wee1 (h) (C 1 μm compound), the “Inh. (%) of Wee1 kinase enzyme activity” value worked out at 96%. Further, the IC50 was 0.835 µM in the test with LoVo cells and 0.913 µM with NCI-H1299 cells (NCI-H1299 cells).

Take `CN1CCC(Nc2ccc(Nc3ncc4c(n3)N3CCN=C3N(c3c(F)cccc3Cl)C4=O)cc2)CC1` [Example 112, 6-(2-Chloro-6-fluorophenyl)-2-((4-((1-methylpiperidin-4-yl)amino)phenyl)amino)-8,9-dihydroimidazo[1,2-a]pyrimido[5,4-e]pyrimidin-5(6H)-one]: on Wee1 (h) (C 1 μm compound), the “Inh. (%) of Wee1 kinase enzyme activity” value is recorded as 97%. Also, the IC50 turned out to be 0.393 µM in the test on LoVo cells and 0.481 µM in the test with NCI-H1299 cells (NCI-H1299, NCI-H1299 cells).

For the molecule `CN1CCC(N(C)c2ccc(Nc3ncc4c(n3)N3CCN=C3N(c3c(F)cccc3Cl)C4=O)cc2)CC1` [Example 113, 6-(2-Chloro-6-fluorophenyl)-2-((4-(methyl(1-methylpiperidin-4-yl)amino)phenyl)amino)-8,9-dihydroimidazo[1,2-a]pyrimido[5,4-e]pyrimidin-5(6H)-one], the “Inh. (%) of Wee1 kinase enzyme activity” value on Wee1 (h) (C 1 μm compound) amounted to 96%. Moreover, the IC50 came to 0.483 µM with LoVo cells and 0.671 µM in the test with NCI-H1299 cells (NCI-H1299, NCI-H1299 cells).

Consider `CN1CCC(c2ccc(Nc3ncc4c(n3)N3CCN=C3N(c3c(F)cccc3Cl)C4=O)cc2)CC1` [Example 114, 6-(2-Chloro-6-fluorophenyl)-2-((4-(1-methylpiperidin-4-yl)phenyl)amino)-8,9-dihydroimidazo[1,2-a]pyrimido[5,4-e]pyrimidin-5(6H)-one], for which, at Wee1 (h) (C 1 μm compound), the “Inh. (%) of Wee1 kinase enzyme activity” value turned out to be 98%. For the same molecule, the IC50 turned out to be 0.105 µM with LoVo cells and 0.233 µM in the test on NCI-H1299 cells (NCI-H1299, NCI-H1299 cells).

`CN(C)C1CCN(c2ccc(Nc3ncc4c(n3)N3CCN=C3N(c3c(F)cccc3Cl)C4=O)cc2)CC1` [Example 115, 6-(2-Chloro-6-fluorophenyl)-2-((4-(4-(dimethylamino)piperidin-1-yl)phenyl)amino)-8,9-dihydroimidazo[1,2-a]pyrimido[5,4-e]pyrimidin-5(6H)-one]: the “Inh. (%) of Wee1 kinase enzyme activity” value is on record as 34% at Wee1 (h) (C 0.01 μm compound), 81% at Wee1 (h) (C 0.1 μm compound) and 96% at Wee1 (h) (C 1 μm compound). The IC50 in the test on LoVo cells was found to be 0.265 µM; in the test on NCI-H1299 cells (NCI-H1299, NCI-H1299 cells), 0.381 µM.

Take `CN(C)C1CCN(c2ccc(Nc3ncc4c(n3)N3CCN=C3N(c3c(F)cccc3Cl)C4=O)cc2F)CC1` [Example 116, 6-(2-Chloro-6-fluorophenyl)-2-((4-(4-(dimethylamino)piperidin-1-yl)-3-fluorophenyl)amino)-8,9-dihydroimidazo[1,2-a]pyrimido[5,4-e]pyrimidin-5(6H)-one]: the “Inh. (%) of Wee1 kinase enzyme activity” value on Wee1 (h) (C 0.01 μm compound) came to 19%; on Wee1 (h) (C 0.1 μm compound), 77%; at Wee1 (h) (C 1 μm compound), 98%. Also, the IC50 amounted to 0.123 µM in the test with LoVo cells and 0.265 µM in the test on NCI-H1299 cells (NCI-H1299, NCI-H1299 cells).

Consider `CN(C)C1CCN(c2ccc(Nc3ncc4c(n3)N3CCN=C3N(c3c(F)cccc3Cl)C4=O)cc2Cl)CC1` [Example 117, 6-(2-Chloro-6-fluorophenyl)-2-((3-chloro-4-(4-(dimethylamino)piperidin-1-yl)phenyl)amino)-8,9-dihydroimidazo[1,2-a]pyrimido[5,4-e]pyrimidin-5(6H)-one], for which the entries for the “Inh. (%) of Wee1 kinase enzyme activity” value on Wee1 (h) (C 0.01 μm compound), at Wee1 (h) (C 0.1 μm compound) and at Wee1 (h) (C 1 μm compound) were 22%, 84% and 98%, respectively. Further, the IC50 was 0.0662 µM in the test on LoVo cells and 0.103 µM with NCI-H1299 cells (NCI-H1299, NCI-H1299 cells).

Consider `CN(C)C1CCN(c2ccc(Nc3ncc4c(n3)N3CCN=C3N(c3c(F)cccc3Cl)C4=O)cc2Br)CC1` [Example 118, 6-(2-Chloro-6-fluorophenyl)-2-((3-bromo-4-(4-(dimethylamino)piperidin-1-yl)phenyl)amino)-8,9-dihydroimidazo[1,2-a]pyrimido[5,4-e]pyrimidin-5(6H)-one], for which the “Inh. (%) of Wee1 kinase enzyme activity” value at Wee1 (h) (C 0.01 μm compound) came out at 25%; at Wee1 (h) (C 0.1 μm compound), 82%; at Wee1 (h) (C 1 μm compound), 96%. The IC50 in the test on LoVo cells turned out to be 0.0811 µM; in the test with NCI-H1299 cells (NCI-H1299, NCI-H1299 cells), 0.0964 µM.

Regarding `Cc1cc(Nc2ncc3c(n2)N2CCN=C2N(c2c(F)cccc2Cl)C3=O)ccc1N1CCC(N(C)C)CC1` [Example 119, 6-(2-Chloro-6-fluorophenyl)-2-((4-(4-(dimethylamino)piperidin-1-yl)-3-methylphenyl)amino)-8,9-dihydroimidazo[1,2-a]pyrimido[5,4-e]pyrimidin-5(6H)-one], the “Inh. (%) of Wee1 kinase enzyme activity” value on Wee1 (h) (C 0.01 μm compound) was found to be 24%; on Wee1 (h) (C 0.1 μm compound) it was 86%; at Wee1 (h) (C 1 μm compound) it was 99%. For the same molecule, the IC50 was 0.0543 µM in the test with LoVo cells and 0.0923 µM with NCI-H1299 cells (NCI-H1299, NCI-H1299 cells).

Turning to `Cc1cc(Nc2ncc3c(n2)N2CCN=C2N(c2c(F)cccc2Cl)C3=O)cc(F)c1N1CCC(N(C)C)CC1` [Example 120, 6-(2-Chloro-6-fluorophenyl)-2-((3-fluoro-5-methyl-4-(4-(dimethylamino)piperidin-1-yl)phenyl)amino)-8,9-dihydroimidazo[1,2-a]pyrimido[5,4-e]pyrimidin-5(6H)-one], the “Inh. (%) of Wee1 kinase enzyme activity” value on Wee1 (h) (C 0.01 μm compound) is listed as 16%; on Wee1 (h) (C 0.1 μm compound), 80%; at Wee1 (h) (C 1 μm compound) it was 98%. Further, the IC50 with LoVo cells came to 0.0359 µM; in the test on NCI-H1299 cells (NCI-H1299, NCI-H1299 cells), 0.0593 µM.

`CN1CCN(c2cnc(Nc3ncc4c(n3)N3CCN=C3N(c3c(F)cccc3Cl)C4=O)cn2)CC1` [Example 121, 6-(2-Chloro-6-fluorophenyl)-2-((5-(4-methylpiperazin-1-yl)pyrazin-2-yl)amino)-8,9-dihydroimidazo[1,2-a]pyrimido[5,4-e]pyrimidin-5(6H)-one]: the “Inh. (%) of Wee1 kinase enzyme activity” value at Wee1 (h) (C 1 μm compound) is given as 15%. The values for the IC50 with LoVo cells and with NCI-H1299 cells (NCI-H1299 cells) were > 100 µM and > 10 µM, respectively.

Take `CN1CCN(c2c(Cl)cc(Nc3ncc4c(n3)N3CCN=C3N(c3c(F)cccc3Cl)C4=O)cc2Cl)CC1` [Example 122, 6-(2-Chloro-6-fluorophenyl)-2-((3,5-dichloro-4-(4-methylpiperazin-1-yl)phenyl)amino)-8,9-dihydroimidazo[1,2-a]pyrimido[5,4-e]pyrimidin-5(6H)-one]: the “Inh. (%) of Wee1 kinase enzyme activity” value is recorded as 20% on Wee1 (h) (C 0.01 μm compound), 58% on Wee1 (h) (C 0.1 μm compound) and 91% at Wee1 (h) (C 1 μm compound). Moreover, the IC50 with LoVo cells was found to be 0.0518 µM; with NCI-H1299 cells (NCI-H1299, NCI-H1299 cells), 0.335 µM.

In the case of `Cc1cc(Nc2ncc3c(n2)N2CCN=C2N(c2c(F)cccc2Cl)C3=O)cc(F)c1N1CCN(C)CC1` [Example 123, 6-(2-Chloro-6-fluorophenyl)-2-((3-fluoro-5-methyl-4-(4-methylpiperazin-1-yl)phenyl)amino)-8,9-dihydroimidazo[1,2-a]pyrimido[5,4-e]pyrimidin-5(6H)-one], the “Inh. (%) of Wee1 kinase enzyme activity” value was 43% at Wee1 (h) (C 0.01 μm compound), 87% at Wee1 (h) (C 0.1 μm compound) and 97% on Wee1 (h) (C 1 μm compound). In addition, the IC50 in the test with LoVo cells was determined as 0.0391 µM; in the test on NCI-H1299 cells (NCI-H1299, NCI-H1299 cells), 0.218 µM.
